# In the supplement of paper PMC9663587:
# Key:
# Neratinib/HKI272 = compound: CCOc1cc2ncc(C#N)c(Nc3ccc(OCc4ccccn4)c(Cl)c3)c2cc1NC(=O)/C=C/CN(C)C [Neratinib/HKI272]; experiment: GR value, 72 h; higher = faster growth (1 = untreated, <0 = killing);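 further: breast cancer and non-malignant breast epithelial lines, nine half-log doses, viable cells counted by Hoechst and LIVE/DEAD dye imaging versus time-zero plates and DMSO controls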
# [1] = compound: CCc1cnn2c(NCc3ccc[n+]([O-])c3)cc(N3CCCC[C@H]3CCO)nc12; experiment: as above
# THZ1 = compound: CN(C)C/C=C/C(=O)Nc1ccc(C(=O)Nc2cccc(Nc3ncc(Cl)c(-c4c[nH]c5ccccc45)n3)c2)cc1 [THZ1]; experiment: as above
# BSJ-03-123 = compound: CC(=O)c1c(C)c2cnc(Nc3ccc(N4CCN(CCOCCOCCOCCNC(=O)COc5cccc6c5C(=O)N(C5CCC(=O)NC5=O)C6=O)CC4)cn3)nc2n(C2CCCC2)c1=O [BSJ-03-123]; experiment: as above
# [2] = compound: CC(=O)c1c(C)c2cnc(Nc3ccc(N4CCNCC4)cn3)nc2n(C2CCCC2)c1=O; experiment: as above
# [3] = compound: CCN1CCN(Cc2ccc(Nc3ncc(F)c(-c4cc(F)c5nc(C)n(C(C)C)c5c4)n3)nc2)CC1; experiment: as above
# Flavopiridol [4] = compound: T1, CN1CC[C@H](c2c(O)cc(O)c3c(=O)cc(-c4ccccc4Cl)oc23)[C@H](O)C1 [Flavopiridol]; experiment: as above
# THZ531 = compound: CN(C)C/C=C/C(=O)Nc1ccc(C(=O)N2CCC[C@@H](Nc3ncc(Cl)c(-c4c[nH]c5ccccc45)n3)C2)cc1 [THZ531]; experiment: as above
# YKL-5-124 = compound: C=CC(=O)Nc1ccc(C(=O)Nc2[nH]nc3c2CN(C(=O)N[C@H](CN(C)C)c2ccccc2)C3(C)C)cc1 [YKL-5-124]; experiment: as above
# LEE011/Ribociclib = compound: CN(C)C(=O)c1cc2cnc(Nc3ccc(N4CCNCC4)cn3)nc2n1C1CCCC1 [LEE011/Ribociclib]; experiment: as above
# [5] = compound: CCN1CCN(Cc2ccc(Nc3ncc(F)c(-c4cc(F)c5nc(C)n(C(C)C)c5c4)n3)nc2)CC1; experiment: increase in dead-cell fraction, 72 h; higher = more death;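 further: breast cancer cell lines in 384-well plates, stained with Hoechst plus LIVE/DEAD far red dye and imaged, cells above an LDR intensity threshold counted dead, Hoechst-negative corpses included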
# Flavopiridol [6] = compound: T1, Flavopiridol; experiment: as above
cell line,measurement,setting,value
SUM190PT,GR value,Neratinib/HKI272; 0.0003162 µM,1.06 GR
same,GR value,Neratinib/HKI272; 0.001 µM,1.04 GR
same,GR value,Neratinib/HKI272; 0.003162 µM,1.06 GR
same,GR value,Neratinib/HKI272; 0.01 µM,0.999 GR
same,GR value,Neratinib/HKI272; 0.03162 µM,1.08 GR
same,GR value,Neratinib/HKI272; 0.1 µM,0.956 GR
same,GR value,Neratinib/HKI272; 0.3162 µM,0.915 GR
same,GR value,Neratinib/HKI272; 1 µM,0.658 GR
same,GR value,Neratinib/HKI272; 3.162 µM,0.429 GR
same,GR value,[1]; 0.0001 µM,0.917 GR
same,GR value,[1]; 0.0003162 µM,0.931 GR
same,GR value,[1]; 0.001 µM,0.951 GR
same,GR value,[1]; 0.003162 µM,1.06 GR
same,GR value,[1]; 0.01 µM,0.98 GR
same,GR value,[1]; 0.03162 µM,-0.207 GR
same,GR value,[1]; 0.1 µM,-0.627 GR
same,GR value,[1]; 0.3162 µM,-0.643 GR
same,GR value,[1]; 1 µM,-0.724 GR
same,GR value,THZ1; 0.0001 µM,1.05 GR
same,GR value,THZ1; 0.0003162 µM,0.839 GR
same,GR value,THZ1; 0.001 µM,0.923 GR
same,GR value,THZ1; 0.003162 µM,0.842 GR
same,GR value,THZ1; 0.01 µM,0.0733 GR
same,GR value,THZ1; 0.03162 µM,-0.46 GR
same,GR value,THZ1; 0.1 µM,-0.462 GR
same,GR value,THZ1; 0.3162 µM,-0.331 GR
same,GR value,THZ1; 1 µM,-0.467 GR
same,GR value,BSJ-03-123; 0.001 µM,0.831 GR
same,GR value,BSJ-03-123; 0.003162 µM,0.729 GR
same,GR value,BSJ-03-123; 0.01 µM,0.533 GR
same,GR value,BSJ-03-123; 0.03162 µM,0.491 GR
same,GR value,BSJ-03-123; 0.1 µM,0.451 GR
same,GR value,BSJ-03-123; 0.3162 µM,0.371 GR
same,GR value,BSJ-03-123; 1 µM,0.396 GR
same,GR value,BSJ-03-123; 3.162 µM,0.354 GR
same,GR value,BSJ-03-123; 10 µM,-0.286 GR
same,GR value,[2]; 0.0003162 µM,0.986 GR
same,GR value,[2]; 0.001 µM,1.02 GR
same,GR value,[2]; 0.003162 µM,1.09 GR
same,GR value,[2]; 0.01 µM,0.949 GR
same,GR value,[2]; 0.03162 µM,0.62 GR
same,GR value,[2]; 0.1 µM,0.316 GR
same,GR value,[2]; 0.3162 µM,0.35 GR
same,GR value,[2]; 1 µM,0.336 GR
same,GR value,[2]; 3.162 µM,0.378 GR
same,GR value,[3]; 0.001 µM,0.779 GR
same,GR value,[3]; 0.003162 µM,0.586 GR
same,GR value,[3]; 0.01 µM,0.444 GR
same,GR value,[3]; 0.03162 µM,0.349 GR
same,GR value,[3]; 0.1 µM,0.395 GR
same,GR value,[3]; 0.3162 µM,0.309 GR
same,GR value,[3]; 1 µM,0.343 GR
same,GR value,[3]; 3.162 µM,0.259 GR
same,GR value,[3]; 10 µM,-0.611 GR
same,GR value,Flavopiridol [4]; 0.0001 µM,0.999 GR
same,GR value,Flavopiridol [4]; 0.0003162 µM,1.06 GR
same,GR value,Flavopiridol [4]; 0.001 µM,0.935 GR
same,GR value,Flavopiridol [4]; 0.003162 µM,0.883 GR
same,GR value,Flavopiridol [4]; 0.01 µM,0.661 GR
same,GR value,Flavopiridol [4]; 0.03162 µM,0.785 GR
same,GR value,Flavopiridol [4]; 0.1 µM,0.58 GR
same,GR value,Flavopiridol [4]; 0.3162 µM,0.0012 GR
same,GR value,Flavopiridol [4]; 1 µM,-0.382 GR
same,GR value,THZ531; 0.0001 µM,1.07 GR
same,GR value,THZ531; 0.0003162 µM,0.955 GR
same,GR value,THZ531; 0.001 µM,0.949 GR
same,GR value,THZ531; 0.003162 µM,0.966 GR
same,GR value,THZ531; 0.01 µM,1.12 GR
same,GR value,THZ531; 0.03162 µM,0.889 GR
same,GR value,THZ531; 0.1 µM,-0.322 GR
same,GR value,THZ531; 0.3162 µM,-0.725 GR
same,GR value,THZ531; 1 µM,-0.492 GR
same,GR value,YKL-5-124; 0.001 µM,0.557 GR
same,GR value,YKL-5-124; 0.003162 µM,0.365 GR
same,GR value,YKL-5-124; 0.01 µM,0.267 GR
same,GR value,YKL-5-124; 0.03162 µM,0.198 GR
same,GR value,YKL-5-124; 0.1 µM,0.212 GR
same,GR value,YKL-5-124; 0.3162 µM,0.0489 GR
same,GR value,YKL-5-124; 1 µM,0.154 GR
same,GR value,YKL-5-124; 3.162 µM,0.102 GR
same,GR value,YKL-5-124; 10 µM,-0.42 GR
same,GR value,LEE011/Ribociclib; 0.001 µM,0.777 GR
same,GR value,LEE011/Ribociclib; 0.003162 µM,0.632 GR
same,GR value,LEE011/Ribociclib; 0.01 µM,0.576 GR
same,GR value,LEE011/Ribociclib; 0.03162 µM,0.542 GR
same,GR value,LEE011/Ribociclib; 0.1 µM,0.453 GR
same,GR value,LEE011/Ribociclib; 0.3162 µM,0.46 GR
same,GR value,LEE011/Ribociclib; 1 µM,0.0072 GR
same,GR value,LEE011/Ribociclib; 3.162 µM,0.199 GR
same,GR value,LEE011/Ribociclib; 10 µM,0.383 GR
same,increase in dead-cell fraction,[5]; 0.001 µM,0.001
same,increase in dead-cell fraction,[5]; 0.003162 µM,0.0059
same,increase in dead-cell fraction,[5]; 0.01 µM,0.0009
same,increase in dead-cell fraction,[5]; 0.03162 µM,0.0041
same,increase in dead-cell fraction,[5]; 0.1 µM,0.0078
same,increase in dead-cell fraction,[5]; 0.3162 µM,0.0015
same,increase in dead-cell fraction,[5]; 1 µM,-0.0004
same,increase in dead-cell fraction,[5]; 3.162 µM,0.0076
same,increase in dead-cell fraction,[5]; 10 µM,0.32
same,increase in dead-cell fraction,Flavopiridol [6]; 0.0001 µM,-0.0004
same,increase in dead-cell fraction,Flavopiridol [6]; 0.0003162 µM,-0.0016
same,increase in dead-cell fraction,Flavopiridol [6]; 0.001 µM,-0.0005
same,increase in dead-cell fraction,Flavopiridol [6]; 0.003162 µM,-0.0011
same,increase in dead-cell fraction,Flavopiridol [6]; 0.01 µM,0.0056
same,increase in dead-cell fraction,Flavopiridol [6]; 0.03162 µM,0.0019
same,increase in dead-cell fraction,Flavopiridol [6]; 0.1 µM,0.0046
same,increase in dead-cell fraction,Flavopiridol [6]; 0.3162 µM,0.0223
same,increase in dead-cell fraction,Flavopiridol [6]; 1 µM,0.082
